Source: PubChem BioAssay (NCI)
Where “and” joins values, the source holds several entries; their conditions need not be identical. Equal values may be shown once.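 Growth conditions: 96-well plates. Treatment: test compound, 48 hours, 5 concentrations. Analysis: linear interpolation between bracketing concentrations; unreached endpoints set to highest concentration. Abbreviation: GI50, concentration required for 50% inhibition of growth. TGI: total growth inhibition.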

Columns and labels:
Assay in all cases: NCI tumour cell line growth inhibition, 48 h
[1] = test system: A549 NSCLC
[2] = test system: ACHN renal
[3] = test system: CAKI-1 renal
[4] = test system: HT29 colon
[5] = test system: NCI-H522 lung
[6] = test system: OVCAR-4 ovarian
[7] = test system: OVCAR-5 ovarian
[8] = test system: SK-MEL-5 melanoma
[9] = test system: SW-620 colon
[10] = test system: UO-31 renal

| SMILES | TGI [1] [µM] | TGI [2] [µM] | TGI [3] [µM] | TGI [4] [µM] | TGI [5] [µM] | TGI [6] [µM] | TGI [7] [µM] | TGI [8] [µM] | TGI [9] [µM] | TGI [10] [µM] | GI50 [1] [µM] | GI50 [2] [µM] | GI50 [3] [µM] | GI50 [4] [µM] | GI50 [5] | GI50 [6] | GI50 [7] [µM] | GI50 [8] | GI50 [9] [µM] | GI50 [10] [µM] |
| --- | --- | --- | --- | --- | --- | --- | --- | --- | --- | --- | --- | --- | --- | --- | --- | --- | --- | --- | --- | --- |
| Cn1c(N/N=C/c2ccccc2)nc(-c2ccc3c(c2)OCO3)c(C#N)c1=O | > 100 | > 100 | > 100 | > 100 | > 100 | > 100 | > 100 | > 100 | > 100 | > 100 |  |  |  |  |  |  |  |  |  |  |
| C/C=C1\CC(C(=O)OCC)CCCCCCC1=O (stereo not drawn) | > 100 | > 100 | > 100 | > 100 | > 100 | > 100 | > 100 | > 100 | > 100 | > 100 |  |  |  |  |  |  |  |  |  |  |
| CC12NC(=C(C#N)C#N)C(C#N)=C3NC(N)=C(C#N)C(=C31)Oc1ccccc12 (stereo not drawn) | > 100 | > 100 | > 100 | > 100 | > 100 | > 100 | > 100 | > 22.9 | > 100 | > 100 |  |  |  |  |  |  |  |  |  |  |
| Cc1cc(N(CCC#N)S(=O)(=O)c2ccccc2)ccc1C=Nc1cccc(C(=O)O)c1 | > 100 | > 100 | > 100 | > 100 | > 100 | > 100 | > 100 | > 100 | > 100 | > 100 |  |  |  |  |  |  |  |  |  |  |
| C[C@@H]1C[C@H]2OC(=O)[C@@]3(C)CCC[C@@](C)([C@@H]23)[C@@]1(O)CCc1ccoc1 | > 100 | > 100 | > 100 | > 100 | > 100 | > 100 | > 100 | > 100 | > 100 | > 100 |  |  |  |  |  |  |  |  |  |  |
| COC(=O)C1OC(O[C@H]2CC[C@]3(C)[C@H]4CC=C5[C@@H]6CC(C)(C)CC[C@]6(C(=O)OC)CC[C@@]5(C)[C@]4(C)CC[C@H]3C2(C)C)C(O)C(O)C1O (stereo partly drawn) | 22.5 | 24.2 | 21.8 | 22.9 | 35.2 | 30.6 | 27.7 | 32.2 | 34.6 | 33.4 |  |  |  |  |  |  |  |  |  |  |
| C1=N[C@]23C(=N[C@H](N=C2NCc2ccco2)[C@]24N=CNC2=N[C@H]3N=C4NCc2ccco2)N1 | > 100 | > 100 | > 100 | > 100 | > 100 | > 100 | > 100 | > 100 | > 100 | > 100 | > 100 | > 100 | 19.5 | > 100 | > 100 µM | 65 µM | > 100 | > 100 µM | > 100 | > 100 |
| CCC(=O)OC1CCn2c1nc1c2C(=O)C(C)=C(NC(C)=O)C1=O (stereo not drawn) | 3.62 | 11.7 | 3.61 | 3.59 | 2.94 | 1.67 | 3.39 | 3.27 | 2.93 | 4.73 |  |  |  |  |  |  |  |  |  |  |
| c1ccc(CN2CCC(=NN3CCCCC3)CC2)cc1 | > 100 | > 100 | > 100 | > 100 | > 100 | > 100 | > 100 | > 100 | > 100 | > 100 |  |  |  |  |  |  |  |  |  |  |
| O=C(O)c1cc2ccccc2c(Cc2c(O)c(C(=O)O)cc3ccccc23)c1O | > 100 | > 100 | > 100 | > 100 | > 100 | > 100 | > 100 | > 100 | > 100 | > 100 |  |  |  |  |  |  |  |  |  |  |
| Clc1ccc(Nc2ncco2)cc1Cl | > 10 | > 10 | > 10 | > 10 | > 10 | > 10 | > 10 | > 10 | > 10 | > 10 |  |  |  |  |  |  |  |  |  |  |
| CC(NC(=O)Cc1ccc(OP(=O)(OCc2ccc([N+](=O)[O-])o2)N(C)CCCCCl)cc1)c1ccc(OCC2CCCCC2)c(C(N)=O)c1 (stereo not drawn) | 4.68 | 37.1 | 20.7 | 3.18 | 5.18 | 6.31 | 8.78 | 2.97 | 10.2 | 8.45 |  |  |  |  |  |  |  |  |  |  |
| CON(C)c1nc(N)c(C#N)c(C#N)c1C#N | > 10 | > 10 | > 10 | > 10 | > 10 | > 10 | > 10 | > 10 | > 10 | > 10 |  |  |  |  |  |  |  |  |  |  |
| CCCNC1=C2C[C@@H](C)C[C@@H](OC)[C@@H](OC(=O)CCCN)[C@H](C)/C=C(\C)[C@@H](OC(N)=O)[C@H](OC)/C=C\C=C(/C)C(=O)NC(=CC1=O)C2=O | 40.6 | 37.6 | 38.5 | 22.9 | 19.1 | 39.4 | 30.5 | 24.5 | > 43.8 | 36.1 |  |  |  |  |  |  |  |  |  |  |
| CN(C)c1ccc(/C=C/C(=O)c2cc(C(C)(C)C)c(O)c(C(C)(C)C)c2)cc1 | > 100 | > 100 | > 58.5 | > 30.2 | 6 | > 100 | > 30.2 | 16.5 | > 100 | > 100 |  |  |  |  |  |  |  |  |  |  |
| C=C1C(=O)OC2C1CCC(=C)C1CC(O)C(=C)C12 (stereo not drawn) | 55.7 | 7.99 | 9.78 | 19.3 | 6.39 | 33.7 | 26.3 | 30.6 | 43.6 | 29.5 |  |  |  |  |  |  |  |  |  |  |
| Cc1cc(OCc2nc(N)nc(N)c2-c2ccc(Cl)c(Cl)c2)ccc1[N+](=O)[O-] | > 100 | 2.37 | 31.8 | 18.1 | 10.6 | 39.1 | 47 | 15 | > 63.6 | 30.5 |  |  |  |  |  |  |  |  |  |  |
| Cc1ccc(S(=O)(=O)NC(=O)Nc2c(S(N)(=O)=O)cc(S(N)(=O)=O)c(Cl)c2Cl)cc1 | > 100 | > 100 | > 100 | > 100 | > 100 | > 100 | > 100 | > 100 | > 100 | > 100 |  |  |  |  |  |  |  |  |  |  |
| COc1ccc(-c2nc(-c3ccc(OC)cc3)n(-c3ccccc3)n2)cc1 | > 100 | > 100 | > 100 | > 100 | 62.5 | > 100 | > 100 | > 100 | > 100 | > 100 |  |  |  |  |  |  |  |  |  |  |
| COc1ccc(/C=C2/N=C(N/N=C\C(O)C(O)C(O)CO)NC2=O)cc1 (stereo not drawn) | > 100 | > 100 | > 100 | > 100 | > 100 | > 100 | > 100 | > 100 | > 100 | > 100 |  |  |  |  | > 100 µM and 34.2 µM | 40.9 µM and > 100 µM |  | > 100 µM and 41.6 µM |  |  |
| CCOC(=O)Oc1cc2ccsc2c2c1c1ccccc1n2C(=O)OCC | > 100 | 98.1 | > 100 | > 100 | > 100 | > 100 | > 100 | > 100 | > 100 | 60.8 |  |  |  |  |  |  |  |  |  |  |
| COc1ccccc1C1C2=C(COC2=O)Oc2cc3c(cc21)OCO3 (stereo not drawn) | > 100 | > 100 | > 100 | 8.53 | 8.11 | > 100 | > 92.4 | > 100 | > 100 | > 33.5 |  |  |  |  |  |  |  |  |  |  |
| C=C1CC[C@@]2(C)[C@@H]([C@@H]1C)[C@H]1CC[C@@H]3[C@@]4(C)CC[C@H](O)C(C)(C)[C@@H]4CC[C@@]3(C)[C@]1(C)C[C@@H]2O | 4.65 | 4.44 | 5.59 | 19.6 | 4.52 | 6.53 | 17.7 | > 50.3 | > 100 | 5.67 |  |  |  |  |  |  |  |  |  |  |
| c1ccc(-c2csc3c2-n2cccc2C3N2CCCC2)cc1 (stereo not drawn) | > 100 | > 100 | > 100 | > 100 | > 100 | > 100 | > 100 | 22.6 | > 100 | > 100 |  |  |  |  |  |  |  |  |  |  |
| N/C(=N\N=C\c1cc2ccccc2s1)c1cnccn1 | > 100 | > 100 | > 100 | > 100 | > 100 | > 100 | > 100 | > 100 | > 100 | > 100 |  |  |  |  |  |  |  |  |  |  |
| O=c1oc2ccc([N+](=O)[O-])cc2nc1/C=C(\O)c1ccccc1 | > 100 | > 100 | > 100 | > 100 | > 100 | > 100 | > 100 | > 100 | > 100 | > 100 |  |  |  |  |  |  |  |  |  |  |
| Oc1ccc(-c2c3ccccc3c(-c3ccc(O)cc3)c3ccccc23)cc1 | > 100 | > 100 | > 100 | > 100 | > 100 | > 100 | > 100 | > 100 | > 100 | > 100 |  |  |  |  |  |  |  |  |  |  |
| OC1(c2ccccc2)CC2CCC(C1)N2CCCC(O)(c1ccccc1)c1ccccc1 (stereo not drawn) | 34.4 | 31.5 | 27.1 | 9.64 | 27.9 | > 100 | 44.4 | 10.2 | 22.4 | 20.2 |  |  |  |  |  |  |  |  |  |  |
| O=[N+]([O-])c1ccc(CSc2nn(Cc3ccc([N+](=O)[O-])cc3)cc3ncnc2-3)cc1 | > 100 | > 100 | > 100 | > 100 | 67.8 | > 100 | > 100 | > 100 | > 100 | 61.2 |  |  |  |  |  |  |  |  |  |  |
